Among the data in a melting point compilation (Tetko et al.; mined from patent text by program, amines drawn as free bases though some values may be those of a salt) are melting point values, retold here.

`COc1cc(C(=O)CC(c2ccncc2)C(C)(C)[N+](=O)[O-])cc(OC)c1OC` (centres undefined) had a melting point of 214 to 216 °C.
The value for `COC(=O)CC1=C(C)/C(=C/c2ccc(S(C)(=O)=O)cc2)c2ccc(F)cc21` was 162 to 164 °C.
In the case of `CC[Si](CC)(CC)c1cccc2c1oc1c([Si](CC)(CC)CC)cccc12`, the melting point was 59 to 61 °C.
For `Cc1cc(NC2CCCCC2)c2[nH]ncc2n1` the value was 287 to 289 °C.
For `CCOC(Cc1ccc(OCCCc2nc(-c3ccc(C(F)(F)F)cc3)oc2C)c2ccsc12)C(=O)O` (centres undefined) the value was 112 to 114 °C; for `CNc1nc(Nc2ccc(Cl)c(Cl)c2)ncc1N1C(=O)CNC1=O`, 301 °C.
For `COc1ccc(CCNC(=O)CCc2ccccc2C(=O)NCCc2ccccc2)cc1OC` the value was 122 to 123 °C.
Take `CCCN1C(=O)C(=O)c2cc(SCCCc3ccc(C(=O)O)cc3)ccc21`: the melting point is 140 to 142 °C.
Take `CC(=C1SCCCS1)c1ccc(Sc2ccc(O)cc2)cc1`: the melting point lay in the range of 113 to 114 °C.
Consider `COCCOCCNc1ncnc2c1cnn2-c1cc(C)cc(C)c1`, for which the melting point was 90.4 °C.
In the case of `NC(=O)Nc1cccc(CS(=O)(=O)O)c1`, the melting point lay within 180 to 187 °C.
The value for `CCCCc1oc2ccccc2c1C(=O)N(Cc1ccccc1)Cc1ccc(-c2ccc(OC)c(Br)c2)cc1` was 145 to 148 °C.
For `CN1C(=O)N(CC2=C(CC3CCCC3)C(=O)OC2)C(=O)C1(C)C`, the melting point was in the range of 77 to 79 °C.
For `Cc1ccc2oc(=O)n(-c3ccnc(NC(=O)NCc4ccccn4)c3)c2c1` the value was 205 to 206 °C; for `COC(=O)c1ccc(OC)c2c(I)c(OC)ccc12`, 120 to 122 °C.
For `O=C1c2cccc3cccc(c23)C(=O)N1C1CCC(O)CC1` (centres undefined) the value was 240 to 242 °C.
`COc1cccc(S(=O)(=O)N(CC(N)=O)c2ccc(Cl)cc2Cc2ccccc2Cl)c1` registered a melting point of 65.7 °C.
For `O=C1NC(=O)C(=Cc2ccc(N3CCC4(CC3)OCCO4)c(Br)c2)S1` the value was 109 to 111 °C.
For `CCOC(=O)[C@H](Cc1ccc(-c2c(OC)cc(CO)cc2OC)cc1)NC(=O)c1c(Cl)cccc1Cl` the value was 121 °C; for `CCOC(=O)c1cn(Cc2ccccc2)nc1OCc1cccc(OCc2nc(-c3ccccc3)oc2C)c1`, 95 to 96 °C.
Compound `CC(=O)N[C@@H](C)COC1CCN(c2nc3ccc(OCC(F)(F)F)cc3s2)CC1` had a melting point of 129 to 131 °C.
The value for `CCCN(CCC)C(=O)C(CCC(=O)NC)NC(=O)C=Cc1ccco1` (centres undefined) was 112 to 113 °C.
`COc1cc(CC(=O)NCCCc2ccc(C)c(C)c2)ccc1OCCN` came in with a melting point of 125 °C.
For the compound `O=C(O)CCCCCn1nnnc1S`, the melting point was 100 °C.
For `CN(C)S(=O)(=O)N1CCN(C(=O)c2ccc(Nc3ccnc4cc(C(F)(F)F)ccc34)cc2)CC1` the value was 223 to 224 °C; for `Oc1ccc2c(c1)[C@H](O)[C@H](Cc1cccnc1)CO2` (relative stereo), 144 to 147 °C.
For `CCOC(=O)c1c(CC)nn2ccc3c(c12)CCO3`, the melting point fell in the range of 110 to 111 °C.
In turn, `CC(C)Cc1ccc(-c2ccccc2C(C)C(=O)O)cc1` (centres undefined) showed a melting point of 76 to 77 °C.
For `CCNc1nc2n(n1)Cc1ccccc1-2` the value was 150 to 152 °C; for `O=C1N(CC2CCCO2)c2ccccc2C12COc1cc3c(cc12)CCCO3` (centres undefined), 151 to 156 °C.
For `CC(=O)OC1CCC2CCC3C(CCC4(C)C(O)C(N5CCCCC5)CC34)C2(C)C1` (centres undefined) the value was 162 to 166 °C.
`O=S1(=O)Cc2ccc(F)cc2C(c2ccc(F)cc2)=NN1CCCc1ccccc1` returned a melting point of 163 to 167 °C.
For the compound `O=C(O)CS(=O)CC(=O)O`, the melting point lay in the range of 118 to 119 °C.
The value for `COc1ccc(C(=O)Nn2c(=O)[nH]c3ccccc3c2=O)cc1` was 289 °C.
In turn, `CC(C(=O)O)c1ccc2cc(O)ccc2c1` (centres undefined) came in with a melting point of 186 to 188 °C.
The value for `COC(=O)c1cc(CN=C=S)cc(CN=C=S)c1` was 67 to 69 °C; that for `O=C1NC(Cc2ccncc2)(Cc2ccncc2)C(=O)N1C12CC3CC(CC(C3)C1)C2` was 284 to 286 °C; that for `Cn1nc(-c2cc(Cl)c(F)cc2F)c(Cl)c1C(F)(F)F` was 50 to 51 °C.
As to `CCCCCCCCCCCCCCN(C(=O)CCCCCCCCCCC)C1(N)OC(CO)C(O)C(O)C1C(=O)CNC(=O)C(C)(N)C(=O)C(C)N` (centres undefined), the melting point was in the range of 132 to 134 °C.
The value for `CCCCc1nc2c(N)nc(C)c(C)c2n1CC(C)(C)NC(=O)NC1CCCCC1` was 128 to 130 °C; that for `CCN(CC)C(=O)c1cc(-c2cccs2)c2occc2c1` was 64 °C.
The compound `COCc1noc(-c2ncn3c2CN(C)C(=O)c2c(Cl)cccc2-3)n1` had a melting point of 213 to 215 °C.
For the compound `CC(C)(C)CC(=O)NCc1cccc2c1C(=O)N(C1CCC(=O)NC1=O)C2=O` (centres undefined), the melting point lay within 145 to 147 °C.
The value for `COc1nc(N)cc2cccnc12` was 178 to 180 °C; that for `Cc1oc(-c2ccccc2)nc1COc1ccc(CCCCC2OC(=O)NC2=O)cc1` (centres undefined) was 186 to 187 °C; that for `CON=C(C1=CN(C)CC=C1)C(F)(F)F` was 140 to 143 °C.
In turn, `O=C(NCc1ccc(Cl)cc1)c1cn2c3c(cc(C#CCO)cc3c1=O)CC2CO` (centres undefined) had a melting point of 224 to 225 °C.
The value for `CC(C)(C)C(=O)C=Cc1ccc(C2OCCO2)cc1` was 79 to 81 °C.
Regarding `CCOC1=CC(=O)N([C@@H]2c3cc(C#N)ccc3OC(C)(C)[C@H]2O)C1`, the melting point was found to be 210 °C.
The value for `COCCCNS(=O)(=O)Cc1cccc(Nc2cc(-c3ccccc3OC)ncn2)c1` was 149 to 151 °C.
Turning to `COC(=O)c1coc2c1C(=O)CCC2`, the melting point is 100 to 102 °C.
Compound `O=S(=O)(c1ccccc1)n1ccc2c(CO)cccc21` showed a melting point of 89 to 91 °C.
Consider `CS(=O)c1c(Br)nn(-c2c(Cl)cc(C(F)(F)F)cc2Cl)c1N` (centres undefined), for which the melting point lay in the range of 135 to 136 °C.
`Cc1[nH]c2ccccc2c1CCCN1CCC(O)(Cc2ccccc2)CC1`: the melting point lay in the range of 132 to 134 °C.
Compound `CCOC(=O)c1cn(Cc2ccccc2)nc1OCc1ccc(OCc2nc(-c3ccco3)oc2C)cc1OC` came in with a melting point of 137 to 138 °C.
For `FC(F)(F)c1ccc(-c2ccc3nncn3n2)cc1` the value was 160 to 161 °C; for `O=C1NNC(C=Cc2ccc([N+](=O)[O-])cc2)CS1` (centres undefined), 231 to 240 °C.
For `Cn1c(=O)[nH]c2cnc(-c3ccccc3)nc21` the value was 286 to 289 °C.
The value for `CCC(C#N)c1nsc2ccc(-n3c(=O)cc(C(F)(F)F)n(C)c3=O)cc12` (centres undefined) was 107 to 109 °C; that for `CC(C)=NOCC(C)OC(=O)COc1ccc(Cl)c2cccnc12` (centres undefined) was 102 °C; that for `C=CCNC(=O)ON=C1SCC(=O)N1CC` was 103 to 104 °C.
Turning to `CC(C)(C)OC(=O)NN(C(=O)OC(C)(C)C)c1ccc(OCC(F)(F)F)cc1`, the melting point fell in the range of 140 to 141 °C.
`N#CC1(C2CCCc3ccccc32)CC1` (centres undefined): the melting point lay in the range of 91 to 93 °C.
As to `Cc1ccc(C(=O)C2CCN(CCc3c[nH]c4ccccc34)CC2)cc1C`, the melting point is 172 to 173 °C.
For the compound `Oc1ccc(-c2cc3cc(F)ccc3o2)cc1`, the melting point lay in the range of 202 to 204 °C.
The value for `Cc1nn(-c2ccccn2)c2[nH]c3ccc(C(=O)O)cc3c(=O)c12` was above 300 °C; that for `O=C(O)CCC1C2CC3CC(C2)CC1C3` (centres undefined) was 116 °C.
In turn, `CCOC(=O)Cn1c(=O)c2cc(CBr)ccc2n(Cc2ccc(Cl)c(Cl)c2)c1=O` returned a melting point of 128 to 129 °C.
The compound `CC(C)Oc1cc(CCCNC(=O)NS(=O)(=O)c2ccccc2)n(Cc2ccc(Cl)cc2Cl)n1` gave a melting point of 149 °C.
Take `CCC(C(=O)N(C)C)n1cc(Cl)c(-c2ccccc2)n1` (centres undefined): the melting point was in the range of 94 to 96.5 °C.
`Cc1cc2cc(CN3CCCCCC3)cnc2cc1NC(=O)c1ccc(-c2ccc(F)cc2)cc1` showed a melting point of 170 to 174 °C.
For `CC(C)(C)OCC(NC(=O)c1ccccc1SSc1ccccc1C(=O)NC(COC(C)(C)C)C(=O)O)C(=O)O` (centres undefined) the value was 206 to 207 °C; for `Cc1cccc(C2CNCCN2C(=O)N(c2ccccc2)c2ccccc2)c1` (centres undefined), 119 to 121 °C.
In the case of `CC(=O)Oc1ccc(NC(C)=C2C(=O)OC(=O)C(C(C)=O)=C2O)cc1`, the melting point is 199 to 201 °C.
`CCOc1ccc(CN2C(=O)C(C)(c3ccccc3Cl)c3cc(Cl)ccc32)c(OC)c1` (centres undefined) showed a melting point of 124 °C.
`CC(C)c1ccc(C2c3cc(N)ccc3OC2(C)C)cc1` (centres undefined) had a melting point of 109 to 110 °C.
The value for `c1ccc2c(c1)CCC1C2=NNC1c1ccncc1` (centres undefined) was 169 to 173 °C; that for `COC(=O)c1ccccc1Oc1nc(Oc2ccccc2C(=O)OC)nc(Oc2ccccc2C(=O)OC)n1` was 58 to 63 °C; that for `N#CC(c1ccccn1)C1CCCCC1O` (centres undefined) was 110 to 112 °C.
For `Cc1nc([C@@H]2C[C@H]2c2ccc3ccccc3n2)cc(-n2nc(C)nc2C)n1` (relative stereo) the value was 140 to 141 °C; for `Cc1c(SCCN)ccnc1CSc1nc2ccccc2[nH]1`, 158 to 160 °C.
The value for `COc1cc(OC)nc(Oc2cccnc2C(=O)O)n1` was 120 to 121 °C.
Compound `Cc1ccc(C(=S)C=CC(=O)Nc2c(C)cccc2C)cc1` had a melting point of 216 to 217 °C.
As for `CC(=O)c1csc(C(=O)C2C(=O)N(C(N)=O)c3ccc(Cl)cc32)c1` (centres undefined), the melting point lay within 230 to 233 °C.
For the compound `CCCC1(O)CSC(=S)N1c1cccc(C)n1` (centres undefined), the melting point stood at 70 °C.
For `Cc1cc(C)c([Si]2(c3c(C)cc(C)cc3C)C(=O)C(c3ccccc3)=C(c3ccccc3)C(=O)[Si]2(c2c(C)cc(C)cc2C)c2c(C)cc(C)cc2C)c(C)c1` the value was 67 to 68 °C.
`O=C1CCCN1CC1CCN(c2nc(C(F)(F)F)ncc2OCc2ccccc2)CC1` displayed a melting point of 155 to 157 °C.
The value for `Cc1cc(C=C2SCNC2=O)cc(C(C)(C)C)c1O` was 162 to 165 °C; that for `NP(N)(=S)N1CCCC1` was 95 to 99 °C.
